Data published in patent US20080014247A1, “METAL-CONTAINING FORMULATIONS AND METHODS OF USE” (Nucryst Pharmaceuticals, priority 2006, published 2008).

Tests used:
Enterobacter cloacae = experiment: MIC assay (microdilution); type: cell-based
Pseudomonas aeruginosa = experiment: MIC assay (microdilution); type: cell-based
E. coli = experiment: Minimal bactericidal concentration (MBC) assay; type: cell-based, Escherichia coli
Experimental: (§1) Minimal bactericidal concentration (MBC) assay—Overnight-grown MIC plates, prepared as described in Example 16, were evaluated to determine the MIC. Culture was then sampled from wells at and near the MIC using sterile inoculating loops, and transferred to fresh MHA plates to determine if viable bacteria remained. […] The MBC was determined as the well in the MIC plate which contained the lowest concentration of silver yielding no bacterial growth on the MHA plate.

Burkholderia multivorans = experiment: MIC assay (microdilution); type: cell-based
[1] = system: Staphylococcus epidermidis; experiment: MIC assay (microdilution); type: cell-based
Escherichia coli = experiment: MIC assay (microdilution); type: cell-based
Shigella flexneri = experiment: MIC assay (microdilution); type: cell-based; settings: ATCC 12022
Staphylococcus aureus = experiment: MIC assay (microdilution); type: cell-based
[2] = system: Mycobacterium tuberculosis H37Ra (ATCC 25177); experiment: microbe, parasite or virus in culture; type: cell-based
Klebsiella pneumoniae = experiment: MIC assay (microdilution); type: cell-based
Strep. pyogenes = experiment: Minimal bactericidal concentration (MBC) assay; type: cell-based, Streptococcus pyogenes
Experimental: as §1

Streptococcus pneumoniae = experiment: MIC assay (microdilution); type: cell-based; settings: lactate solutions
K. pneumoniae = experiment: Minimal bactericidal concentration (MBC) assay; type: cell-based, Klebsiella pneumoniae
Experimental: as §1

Prot. mirabilis = experiment: Minimal bactericidal concentration (MBC) assay; type: cell-based, Proteus mirabilis; settings: isolate NP405
Experimental: as §1

C. freundii = experiment: Minimal bactericidal concentration (MBC) assay; type: cell-based, Citrobacter freundii; settings: isolate NP410
Experimental: as §1

Serratia marcescens = experiment: MIC assay (microdilution); type: cell-based
Citrobacter freundii = experiment: MIC assay (microdilution); type: cell-based; settings: isolate NP410
Staph epidermidis = experiment: Minimal bactericidal concentration (MBC) assay; type: cell-based, Staphylococcus epidermidis
Experimental: as §1

B dolosa = experiment: Minimal bactericidal concentration (MBC) assay; type: cell-based, Burkholderia dolosa
Experimental: as §1

Staph. aureus = experiment: Minimal bactericidal concentration (MBC) assay; type: cell-based, Staphylococcus aureus
Experimental: as §1

Burkholderia dolosa = experiment: MIC assay (microdilution); type: cell-based
Streptococcus pyogenes = experiment: MIC assay (microdilution); type: cell-based
Ser. marcescens = experiment: Minimal bactericidal concentration (MBC) assay; type: cell-based, Serratia marcescens
Experimental: as §1

Proteus mirabilis = experiment: MIC assay (microdilution); type: cell-based; settings: isolate NP405
Ps. aeruginosa = experiment: Minimal bactericidal concentration (MBC) assay; type: cell-based, Pseudomonas aeruginosa
Experimental: as §1

B. multivorans = experiment: Minimal bactericidal concentration (MBC) assay; type: cell-based, Burkholderia multivorans
Experimental: as §1

## O=[N+]([O-])[O-].[Ag+] [AgNO3, silver nitrate]
Enterobacter cloacae; aerobic +
  MIC: 13 µg/mL
Enterobacter cloacae; aerobic − (anaerobic)
  MIC: 25 µg/mL
Pseudomonas aeruginosa; ATCC 9027
  MIC: 1 parts silver per million
Pseudomonas aeruginosa; ATCC 27317
  MIC: 2 parts silver per million
Pseudomonas aeruginosa; P. aerug (ATCC), lactate solutions
  MIC: 3 µg/mL
Pseudomonas aeruginosa; P. aerug. (clin.), lactate solutions
  MIC: 3 µg/mL
Pseudomonas aeruginosa; isolate NP201
  MIC: 1 parts silver per million
Pseudomonas aeruginosa; isolate NP204
  MIC: 1 parts silver per million
Pseudomonas aeruginosa; isolate NP206
  MIC: 1 parts silver per million
Pseudomonas aeruginosa; isolate NP212, formulation type Lactate
  MIC: 2 ppm
Pseudomonas aeruginosa; isolate NP212, formulation type Water/Lecithin
  MIC: 3 ppm
Pseudomonas aeruginosa; isolate NP212, formulation type Water/PVA
  MIC: 3 ppm
E. coli; ATCC 8739
  MBC: 0.4 parts silver per million
E. coli; ATCC 43745
  MBC: 0.4 parts silver per million
E. coli; isolate NP412
  MBC: 1 parts silver per million
Burkholderia multivorans; isolate B1
  MIC: 3 parts silver per million
Burkholderia multivorans; isolate B2
  MIC: 3 parts silver per million
Burkholderia multivorans; isolate B4
  MIC: 2 parts silver per million
[1]; ATCC 12228
  MIC: 3 parts silver per million
[1]; S. epiderm (ATCC), lactate solutions
  MIC: 3 µg/mL
[1]; isolate NP136
  MIC: 3 parts silver per million
Escherichia coli; ATCC 8739
  MIC: 0.4 parts silver per million
Escherichia coli; ATCC 43745
  MIC: 1 parts silver per million
Escherichia coli; E. coli (ATCC), lactate solutions
  MIC: 3 µg/mL
Escherichia coli; isolate NP412
  MIC: 1 parts silver per million
Shigella flexneri; formulation type Lactate
  MIC: 2 ppm
Shigella flexneri; formulation type Water/Lecithin
  MIC: 2 ppm
Shigella flexneri; formulation type Water/PVA
  MIC: 1 ppm
Staphylococcus aureus; ATCC 6538
  MIC: 6 parts silver per million
Staphylococcus aureus; ATCC 700699
  MIC: 3 parts silver per million
Staphylococcus aureus; S. aureus (ATCC), lactate solutions
  MIC: 11 µg/mL
Staphylococcus aureus; S. aureus (clin.), lactate solutions
  MIC: 5 µg/mL
Staphylococcus aureus; isolate NP101
  MIC: 6 parts silver per million
Staphylococcus aureus; isolate NP102
  MIC: 6 parts silver per million
Staphylococcus aureus; isolate NP103
  MIC: 6 parts silver per million
[2]
  MIC: 2.5 μg/ml silver
Klebsiella pneumoniae; aerobic +
  MIC: 3 µg/mL
Klebsiella pneumoniae; aerobic − (anaerobic)
  MIC: 3 µg/mL
Klebsiella pneumoniae; isolate NP401
  MIC: 3 parts silver per million
Klebsiella pneumoniae; isolate NP403
  MIC: 6 parts silver per million
Klebsiella pneumoniae; isolate NP403, second entry
  MIC: 6 parts silver per million
Klebsiella pneumoniae; isolate NP406
  MIC: 1 parts silver per million
Strep. pyogenes; isolate NP303
  MBC: 10 parts silver per million
Strep. pyogenes; isolate NP304
  MBC: 21 parts silver per million
Strep. pyogenes; isolate NP306
  MBC: 21 parts silver per million
Streptococcus pneumoniae; S. pneumo (clin 314)
  MIC: 11 µg/mL
Streptococcus pneumoniae; S. pneumo (clin 315)
  MIC: 21 µg/mL
K. pneumoniae; isolate NP401
  MBC: 3 parts silver per million
K. pneumoniae; isolate NP403
  MBC: 6 parts silver per million
K. pneumoniae; isolate NP403, second entry
  MBC: 3 parts silver per million
K. pneumoniae; isolate NP406
  MBC: 1 parts silver per million
Prot. mirabilis
  MBC: 13 parts silver per million
C. freundii
  MBC: 3 parts silver per million
Serratia marcescens; aerobic +
  MIC: 6 µg/mL
Serratia marcescens; aerobic − (anaerobic)
  MIC: 13 µg/mL
Serratia marcescens; isolate NP402
  MIC: 6 parts silver per million
Serratia marcescens; isolate NP402, second entry
  MIC: 6 parts silver per million
Serratia marcescens; isolate NP408
  MIC: 6 parts silver per million
Serratia marcescens; isolate NP408, second entry
  MIC: 11 parts silver per million
Citrobacter freundii
  MIC: 3 parts silver per million
Staph epidermidis; ATCC 12228
  MBC: 3 parts silver per million
Staph epidermidis; isolate NP136
  MBC: 3 parts silver per million
B dolosa; isolate A3
  MBC: 3 parts silver per million
B dolosa; isolate A4
  MBC: 2 parts silver per million
Staph. aureus; ATCC 6538
  MBC: 6 parts silver per million
Staph. aureus; ATCC 700699
  MBC: 6 parts silver per million
Staph. aureus; isolate NP101
  MBC: 11 parts silver per million
Staph. aureus; isolate NP102
  MBC: 6 parts silver per million
Staph. aureus; isolate NP103
  MBC: 6 parts silver per million
Burkholderia dolosa; isolate A3
  MIC: 2 parts silver per million
Burkholderia dolosa; isolate A4
  MIC: 2 parts silver per million
Streptococcus pyogenes; S. pyog (clin. 303), lactate solutions
  MIC: 3 µg/mL
Streptococcus pyogenes; S. pyog (clin. 304), lactate solutions
  MIC: 5 µg/mL
Streptococcus pyogenes; isolate NP303
  MIC: 3 parts silver per million
Streptococcus pyogenes; isolate NP304
  MIC: 6 parts silver per million
Streptococcus pyogenes; isolate NP306
  MIC: 6 parts silver per million
Ser. marcescens; isolate NP402
  MBC: 6 parts silver per million
Ser. marcescens; isolate NP402, second entry
  MBC: 6 parts silver per million
Ser. marcescens; isolate NP408
  MBC: 6 parts silver per million
Ser. marcescens; isolate NP408, second entry
  MBC: 11 parts silver per million
Proteus mirabilis
  MIC: 6 parts silver per million
Ps. aeruginosa; ATCC 27317
  MBC: 3 parts silver per million
Ps. aeruginosa; isolate NP201
  MBC: 3 parts silver per million
Ps. aeruginosa; isolate NP204
  MBC: 3 parts silver per million
Ps. aeruginosa; isolate NP206
  MBC: 1 parts silver per million
B. multivorans; isolate B1
  MBC: 3 parts silver per million
B. multivorans; isolate B2
  MBC: 3 parts silver per million
B. multivorans; isolate B4
  MBC: 3 parts silver per million
